The term Ki denotes the dissociation constant of the complex between target and ligand, obtained from inhibition or displacement. Read a low Ki as a stronger hold on the target.

The assay has as its target T1, Alpha-1A adrenergic receptor (Homo sapiens, UniProt P35348).
T1 sequence (P35348 whole entry): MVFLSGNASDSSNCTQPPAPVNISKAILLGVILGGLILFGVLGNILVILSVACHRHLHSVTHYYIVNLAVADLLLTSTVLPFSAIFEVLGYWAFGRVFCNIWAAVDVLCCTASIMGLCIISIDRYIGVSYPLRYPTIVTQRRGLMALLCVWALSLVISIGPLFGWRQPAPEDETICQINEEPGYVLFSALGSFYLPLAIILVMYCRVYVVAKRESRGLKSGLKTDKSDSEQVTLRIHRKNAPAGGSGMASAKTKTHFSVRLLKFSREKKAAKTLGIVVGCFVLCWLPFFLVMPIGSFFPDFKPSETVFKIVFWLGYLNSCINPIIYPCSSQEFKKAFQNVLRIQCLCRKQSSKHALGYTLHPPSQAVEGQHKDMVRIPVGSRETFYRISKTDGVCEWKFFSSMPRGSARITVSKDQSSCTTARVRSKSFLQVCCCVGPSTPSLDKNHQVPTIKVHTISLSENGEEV
Briefly: Binding affinity to Homo sapiens (human) alpha1A adrenergic receptor.

The molecule `COC(=O)C1(c2ccccc2)CCN(CCCNC(=O)C2=C(C)NC(C)=C(C(=O)OCCO)C2c2ccc([N+](=O)[O-])cc2)CC1` (stereo unspecified) showed a Ki of 3.63 nM.
`COC(=O)C1=C(C)NC(C)=C(C(=O)NCCCN2CCC(c3ccccc3)(c3ccccc3)CC2)C1c1ccc(C)cc1` (racemic) gave a Ki of 1.38 nM. Compared with the last molecule, the Ki is about 2.6-fold lower.
`COC(=O)C1=C(C)NC(C)=C(C(=O)NCCCCN2CCC(c3ccccc3)(c3ccccc3)CC2)C1c1ccc([N+](=O)[O-])cc1` (racemic) gave a Ki of 14.8 nM.
The molecule `COC(=O)C1=C(C)NC(C)=C(C(=O)NCCCN2CCC(c3ccccc3)CC2)C1c1ccc(Cl)c([N+](=O)[O-])c1` (racemic) had a Ki of 0.525 nM.
The molecule `COC(=O)C1=C(C)NC(C)=C(C(=O)NCCCN2CCC(c3ccccc3)CC2)C1c1ccc([N+](=O)[O-])cc1` (racemic) had a Ki of 0.229 nM.
In the case of `COC(=O)C1=C(C)NC(C)=C(C(=O)NCCCN2CCC(C(=O)OC)(c3ccccc3)CC2)C1c1ccc([N+](=O)[O-])cc1` (stereo unspecified), the inhibitory constant (Ki) is 3.55 nM.

Values taken from ChEMBL document CHEMBL3045488, “3D-QSAR STUDIES ON SUBSTITUTED DIHYDROPYRIDINES FOR THEIR 1A-ADRENERGIC RECEPTOR BINDING AFFINITY” (Med Chem Res, 2004).
